Reference: ChEMBL document CHEMBL3045592, “Studies of O,O-dimethyl α-(2,4-dichlorophenoxyacetoxy)ethylphosphonate (HW02) as a new herbicide. 1. Synthesis and herbicidal activity of HW02 and analogues as novel inhibitors of pyruvate dehydrogenase complex” (J Agric Food Chem, 2011)

Key:
Type in all cases: functional
Medicago sativa [1] = test: Post-emergence herbicidal activity against Medicago sativa (alfalfa) assessed as growth inhibition at 1500 ai g/ha after 20 days by green house test
Amaranthus retroflexus [2] = test: Post-emergence herbicidal activity against Amaranthus retroflexus assessed as growth inhibition at 1500 ai g/ha after 20 days by green house test
[3] = tested on: Brassica rapa subsp. oleifera; test: Post-emergence herbicidal activity against Brassica rapa subsp. oleifera Si Yue Man assessed as growth inhibition at 1500 ai g/ha after 20 days by green house test
Digitaria sanguinalis [4] = test: Post-emergence herbicidal activity against Digitaria sanguinalis (hairy crabgrass) assessed as growth inhibition at 1500 ai g/ha after 20 days by green house test
Echinochloa crus-galli [5] = test: Post-emergence herbicidal activity against Echinochloa crus-galli (barnyard grass) assessed as growth inhibition at 1500 ai g/ha after 20 days by green house test
Medicago sativa [6] = test: Pre-emergence herbicidal activity against Medicago sativa (alfalfa) assessed as growth inhibition at 1500 ai g/ha after 20 days by green house test
Amaranthus retroflexus [7] = test: Pre-emergence herbicidal activity against Amaranthus retroflexus assessed as growth inhibition at 1500 ai g/ha after 20 days by green house test
[8] = tested on: Brassica rapa subsp. oleifera; test: Pre-emergence herbicidal activity against Brassica rapa subsp. oleifera Si Yue Man assessed as growth inhibition at 1500 ai g/ha after 20 days by green house test
Digitaria sanguinalis [9] = test: Pre-emergence herbicidal activity against Digitaria sanguinalis (hairy crabgrass) assessed as growth inhibition at 1500 ai g/ha after 20 days by green house test
Echinochloa crus-galli [10] = test: Pre-emergence herbicidal activity against Echinochloa crus-galli (barnyard grass) assessed as growth inhibition at 1500 ai g/ha after 20 days by green house test

COP(=O)(COC(=O)COc1ccccc1)OC [(DIMETHOXYPHOSPHORYL)METHYL 2-PHENOXYACETATE]
growth inhibition (GI) (Medicago sativa [1]): <=50%
growth inhibition (GI) (Amaranthus retroflexus [2]): <=50%
growth inhibition (GI) [3]: <=50%
growth inhibition (GI) (Digitaria sanguinalis [4]): <=50%
growth inhibition (GI) (Echinochloa crus-galli [5]): <=50%
growth inhibition (GI) (Medicago sativa [6]): <=50%
growth inhibition (GI) (Amaranthus retroflexus [7]): <=50%
growth inhibition (GI) [8]: <=50%
growth inhibition (GI) (Digitaria sanguinalis [9]): <=50%
growth inhibition (GI) (Echinochloa crus-galli [10]): <=50%

COP(=O)(OC)C(OC(=O)COc1ccc(F)cc1Cl)c1ccccc1 (stereo not given)
growth inhibition (GI) (Medicago sativa [1]): 75%
growth inhibition (GI) (Amaranthus retroflexus [2]): 90%
growth inhibition (GI) [3]: 75%
growth inhibition (GI) (Digitaria sanguinalis [4]): 50%
growth inhibition (GI) (Echinochloa crus-galli [5]): 75%
growth inhibition (GI) (Medicago sativa [6]): 90%
growth inhibition (GI) (Amaranthus retroflexus [7]): 90%
growth inhibition (GI) [8]: 90%
growth inhibition (GI) (Digitaria sanguinalis [9]): 90%
growth inhibition (GI) (Echinochloa crus-galli [10]): 90%

COP(=O)(OC)C(OC(=O)COc1cccc(F)c1)c1cccc([N+](=O)[O-])c1 (stereo not given)
growth inhibition (GI) (Medicago sativa [1]): <=50%
growth inhibition (GI) (Amaranthus retroflexus [2]): <=50%
growth inhibition (GI) [3]: <=50%
growth inhibition (GI) (Digitaria sanguinalis [4]): <=50%
growth inhibition (GI) (Echinochloa crus-galli [5]): <=50%
growth inhibition (GI) (Medicago sativa [6]): <=50%
growth inhibition (GI) (Amaranthus retroflexus [7]): <=50%
growth inhibition (GI) [8]: <=50%
growth inhibition (GI) (Digitaria sanguinalis [9]): <=50%
growth inhibition (GI) (Echinochloa crus-galli [10]): <=50%

COP(=O)(OC)C(OC(=O)COc1ccc(F)c(Cl)c1)c1ccccc1 (stereo not given)
growth inhibition (GI) (Medicago sativa [1]): 50%
growth inhibition (GI) (Amaranthus retroflexus [2]): 75%
growth inhibition (GI) [3]: 75%
growth inhibition (GI) (Digitaria sanguinalis [4]): <=50%
growth inhibition (GI) (Echinochloa crus-galli [5]): 50%
growth inhibition (GI) (Medicago sativa [6]): 75%
growth inhibition (GI) (Amaranthus retroflexus [7]): 90%
growth inhibition (GI) [8]: 90%
growth inhibition (GI) (Digitaria sanguinalis [9]): 90%
growth inhibition (GI) (Echinochloa crus-galli [10]): 75%

COP(=O)(OC)C(OC(=O)COc1c(Cl)cccc1Cl)c1cccc([N+](=O)[O-])c1 (stereo not given)
growth inhibition (GI) (Medicago sativa [1]): <=50%
growth inhibition (GI) (Amaranthus retroflexus [2]): <=50%
growth inhibition (GI) [3]: <=50%
growth inhibition (GI) (Digitaria sanguinalis [4]): <=50%
growth inhibition (GI) (Echinochloa crus-galli [5]): <=50%
growth inhibition (GI) (Medicago sativa [6]): <=50%
growth inhibition (GI) (Amaranthus retroflexus [7]): <=50%
growth inhibition (GI) [8]: <=50%
growth inhibition (GI) (Digitaria sanguinalis [9]): <=50%
growth inhibition (GI) (Echinochloa crus-galli [10]): <=50%

COP(=O)(OC)C(OC(=O)COc1ccc(C(F)(F)F)cc1[N+](=O)[O-])c1ccccc1 (stereo not given)
growth inhibition (GI) (Medicago sativa [1]): <=50%
growth inhibition (GI) (Amaranthus retroflexus [2]): <=50%
growth inhibition (GI) [3]: <=50%
growth inhibition (GI) (Digitaria sanguinalis [4]): <=50%
growth inhibition (GI) (Echinochloa crus-galli [5]): <=50%
growth inhibition (GI) (Medicago sativa [6]): <=50%
growth inhibition (GI) (Amaranthus retroflexus [7]): <=50%
growth inhibition (GI) [8]: <=50%
growth inhibition (GI) (Digitaria sanguinalis [9]): <=50%
growth inhibition (GI) (Echinochloa crus-galli [10]): <=50%

COP(=O)(OC)C(OC(=O)COc1ccc(F)cc1Cl)c1cccc([N+](=O)[O-])c1 (stereo not given)
growth inhibition (GI) (Medicago sativa [1]): 50%
growth inhibition (GI) (Amaranthus retroflexus [2]): 90%
growth inhibition (GI) [3]: 75%
growth inhibition (GI) (Digitaria sanguinalis [4]): 50%
growth inhibition (GI) (Echinochloa crus-galli [5]): 75%
growth inhibition (GI) (Medicago sativa [6]): 90%
growth inhibition (GI) (Amaranthus retroflexus [7]): 90%
growth inhibition (GI) [8]: 90%
growth inhibition (GI) (Digitaria sanguinalis [9]): 90%
growth inhibition (GI) (Echinochloa crus-galli [10]): 90%

COP(=O)(OC)C(C)OC(=O)COc1cccc(Cl)c1Cl (stereo not given)
growth inhibition (GI) (Medicago sativa [1]): <=50%
growth inhibition (GI) (Amaranthus retroflexus [2]): 50%
growth inhibition (GI) [3]: <=50%
growth inhibition (GI) (Digitaria sanguinalis [4]): <=50%
growth inhibition (GI) (Echinochloa crus-galli [5]): <=50%
growth inhibition (GI) (Medicago sativa [6]): <=50%
growth inhibition (GI) (Amaranthus retroflexus [7]): <=50%
growth inhibition (GI) [8]: <=50%
growth inhibition (GI) (Digitaria sanguinalis [9]): <=50%
growth inhibition (GI) (Echinochloa crus-galli [10]): <=50%

COP(=O)(OC)C(OC(=O)COc1ccccc1[N+](=O)[O-])c1ccccc1 (stereo not given)
growth inhibition (GI) (Medicago sativa [1]): <=50%
growth inhibition (GI) (Amaranthus retroflexus [2]): <=50%
growth inhibition (GI) [3]: <=50%
growth inhibition (GI) (Digitaria sanguinalis [4]): <=50%
growth inhibition (GI) (Echinochloa crus-galli [5]): <=50%
growth inhibition (GI) (Medicago sativa [6]): <=50%
growth inhibition (GI) (Amaranthus retroflexus [7]): <=50%
growth inhibition (GI) [8]: <=50%
growth inhibition (GI) (Digitaria sanguinalis [9]): <=50%
growth inhibition (GI) (Echinochloa crus-galli [10]): <=50%

COP(=O)(OC)C(OC(=O)COc1ccc(F)cc1)c1cccc([N+](=O)[O-])c1 (stereo not given)
growth inhibition (GI) (Medicago sativa [1]): 50%
growth inhibition (GI) (Amaranthus retroflexus [2]): 75%
growth inhibition (GI) [3]: 50%
growth inhibition (GI) (Digitaria sanguinalis [4]): 50%
growth inhibition (GI) (Echinochloa crus-galli [5]): 50%
growth inhibition (GI) (Medicago sativa [6]): 75%
growth inhibition (GI) (Amaranthus retroflexus [7]): 75%
growth inhibition (GI) [8]: <=50%
growth inhibition (GI) (Digitaria sanguinalis [9]): 90%
growth inhibition (GI) (Echinochloa crus-galli [10]): 50%

COP(=O)(OC)C(C)OC(=O)COc1cc(F)cc(F)c1 (stereo not given)
growth inhibition (GI) (Medicago sativa [1]): <=50%
growth inhibition (GI) (Amaranthus retroflexus [2]): <=50%
growth inhibition (GI) [3]: <=50%
growth inhibition (GI) (Digitaria sanguinalis [4]): <=50%
growth inhibition (GI) (Echinochloa crus-galli [5]): <=50%
growth inhibition (GI) (Medicago sativa [6]): <=50%
growth inhibition (GI) (Amaranthus retroflexus [7]): <=50%
growth inhibition (GI) [8]: <=50%
growth inhibition (GI) (Digitaria sanguinalis [9]): <=50%
growth inhibition (GI) (Echinochloa crus-galli [10]): <=50%

COP(=O)(OC)C(C)OC(=O)COc1ccc(Br)cc1 (stereo not given)
growth inhibition (GI) (Medicago sativa [1]): 50%
growth inhibition (GI) (Amaranthus retroflexus [2]): 50%
growth inhibition (GI) [3]: 75%
growth inhibition (GI) (Digitaria sanguinalis [4]): <=50%
growth inhibition (GI) (Echinochloa crus-galli [5]): <=50%
growth inhibition (GI) (Medicago sativa [6]): <=50%
growth inhibition (GI) (Amaranthus retroflexus [7]): <=50%
growth inhibition (GI) [8]: <=50%
growth inhibition (GI) (Digitaria sanguinalis [9]): <=50%
growth inhibition (GI) (Echinochloa crus-galli [10]): <=50%

COP(=O)(OC)C(C)OC(=O)COc1ccc(F)cc1 (stereo not given)
growth inhibition (GI) (Medicago sativa [1]): 50%
growth inhibition (GI) (Amaranthus retroflexus [2]): 75%
growth inhibition (GI) [3]: 50%
growth inhibition (GI) (Digitaria sanguinalis [4]): <=50%
growth inhibition (GI) (Echinochloa crus-galli [5]): <=50%
growth inhibition (GI) (Medicago sativa [6]): 75%
growth inhibition (GI) (Amaranthus retroflexus [7]): 50%
growth inhibition (GI) [8]: 75%
growth inhibition (GI) (Digitaria sanguinalis [9]): 90%
growth inhibition (GI) (Echinochloa crus-galli [10]): <=50%

COP(=O)(OC)C(OC(=O)COc1cccc(C(F)(F)F)c1)c1cccc([N+](=O)[O-])c1 (stereo not given)
growth inhibition (GI) (Medicago sativa [1]): <=50%
growth inhibition (GI) (Amaranthus retroflexus [2]): <=50%
growth inhibition (GI) [3]: 50%
growth inhibition (GI) (Digitaria sanguinalis [4]): <=50%
growth inhibition (GI) (Echinochloa crus-galli [5]): 50%
growth inhibition (GI) (Medicago sativa [6]): 50%
growth inhibition (GI) (Amaranthus retroflexus [7]): 50%
growth inhibition (GI) [8]: 50%
growth inhibition (GI) (Digitaria sanguinalis [9]): <=50%
growth inhibition (GI) (Echinochloa crus-galli [10]): <=50%

COP(=O)(OC)C(C)OC(=O)COc1ccc(F)cc1Cl (stereo not given)
growth inhibition (GI) (Medicago sativa [1]): 90%
growth inhibition (GI) (Amaranthus retroflexus [2]): 90%
growth inhibition (GI) [3]: 90%
growth inhibition (GI) (Digitaria sanguinalis [4]): 75%
growth inhibition (GI) (Echinochloa crus-galli [5]): 75%
growth inhibition (GI) (Medicago sativa [6]): 90%
growth inhibition (GI) (Amaranthus retroflexus [7]): 90%
growth inhibition (GI) [8]: 90%
growth inhibition (GI) (Digitaria sanguinalis [9]): 90%
growth inhibition (GI) (Echinochloa crus-galli [10]): 90%

COP(=O)(OC)C(OC(=O)COc1ccccc1F)c1cccc([N+](=O)[O-])c1 (stereo not given)
growth inhibition (GI) (Medicago sativa [1]): <=50%
growth inhibition (GI) (Amaranthus retroflexus [2]): <=50%
growth inhibition (GI) [3]: <=50%
growth inhibition (GI) (Digitaria sanguinalis [4]): <=50%
growth inhibition (GI) (Echinochloa crus-galli [5]): 90%
growth inhibition (GI) (Medicago sativa [6]): <=50%
growth inhibition (GI) (Amaranthus retroflexus [7]): <=50%
growth inhibition (GI) [8]: <=50%
growth inhibition (GI) (Digitaria sanguinalis [9]): <=50%
growth inhibition (GI) (Echinochloa crus-galli [10]): <=50%

COP(=O)(OC)C(OC(=O)COc1ccccc1)c1ccccc1 (stereo not given)
growth inhibition (GI) (Medicago sativa [1]): <=50%
growth inhibition (GI) (Amaranthus retroflexus [2]): <=50%
growth inhibition (GI) [3]: <=50%
growth inhibition (GI) (Digitaria sanguinalis [4]): <=50%
growth inhibition (GI) (Echinochloa crus-galli [5]): <=50%
growth inhibition (GI) (Medicago sativa [6]): <=50%
growth inhibition (GI) (Amaranthus retroflexus [7]): <=50%
growth inhibition (GI) [8]: <=50%
growth inhibition (GI) (Digitaria sanguinalis [9]): <=50%
growth inhibition (GI) (Echinochloa crus-galli [10]): <=50%
